How the values were obtained:
[1] = system: dually perfused human placental lobule
placenta = conditions: cited from earlier work

Compound	effect of HSA, AAG or their combination in the perfusion medium on transfer of AP across the placental lobule ([1]; HSA, AAG, or their combination)	Antipyrine Fetal/Maternal concentration ratio ([1]; human, 20 µg/mL)	fetal/maternal concentration ratio in presence of HSA versus absence of the protein (placenta)
Cc1cc(=O)n(-c2ccccc2)n1C [Antipyrine, antipyrine]	not affected	0.84 ± 0.11	–
COc1ccc(Cl)cc1C(=O)NCCc1ccc(S(=O)(=O)NC(=O)NC2CCCCC2)cc1 [glyburide]	–	–	significantly lower
